The text below walks through data of paper PMC6277434, “Discovery of a potent HMG-CoA reductase degrader that eliminates statin-induced reductase accumulation and lowers cholesterol” (Nature Communications, 2018).

Several values for one entry are separate records, joined by “and”; a condition that tells them apart may be missing. Identical values can stand only once. Where only a bound is given, the exact number is not on record here.

The target in one data set is T1, HMGCR (Mus musculus, UniProt Q01237).
T1 construct: from tissue; host or cells: mouse liver (membrane fraction)
T1 sequence (Q01237 1-887): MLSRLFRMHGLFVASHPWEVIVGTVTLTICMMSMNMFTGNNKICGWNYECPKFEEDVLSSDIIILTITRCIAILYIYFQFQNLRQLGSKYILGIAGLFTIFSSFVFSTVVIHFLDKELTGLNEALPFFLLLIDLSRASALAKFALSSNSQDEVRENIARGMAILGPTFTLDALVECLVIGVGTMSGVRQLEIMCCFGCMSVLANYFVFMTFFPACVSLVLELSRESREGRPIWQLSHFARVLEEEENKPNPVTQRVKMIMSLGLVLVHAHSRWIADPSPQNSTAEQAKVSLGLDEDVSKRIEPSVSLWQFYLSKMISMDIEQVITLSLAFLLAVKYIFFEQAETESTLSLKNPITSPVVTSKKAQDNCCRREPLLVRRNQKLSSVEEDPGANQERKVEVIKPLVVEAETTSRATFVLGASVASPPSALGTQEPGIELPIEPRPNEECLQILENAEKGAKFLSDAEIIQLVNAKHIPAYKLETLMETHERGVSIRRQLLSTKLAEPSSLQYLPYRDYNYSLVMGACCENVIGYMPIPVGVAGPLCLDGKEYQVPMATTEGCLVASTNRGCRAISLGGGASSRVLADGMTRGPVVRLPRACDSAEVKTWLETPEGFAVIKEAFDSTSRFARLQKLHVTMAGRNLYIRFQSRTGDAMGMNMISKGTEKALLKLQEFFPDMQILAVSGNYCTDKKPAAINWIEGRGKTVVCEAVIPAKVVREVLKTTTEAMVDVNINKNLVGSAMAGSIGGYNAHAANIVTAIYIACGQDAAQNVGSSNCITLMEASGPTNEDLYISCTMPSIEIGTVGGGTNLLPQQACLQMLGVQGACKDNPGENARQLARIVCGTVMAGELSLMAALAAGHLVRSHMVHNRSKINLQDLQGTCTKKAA
The data set can be described thus: Immunoblotting of hepatic HMGCR protein (liver membrane fractions) of gavaged mice. Format: in vivo. Background: Immunoblotting shows a protein as a band on a membrane.

For data set [1], the system named is Ldlr−/− mice on a western diet. The data set can be described thus: Atherosclerosis model: Ldlr−/− mice on western diet (Sudan IV aorta lesions, TC/TG, FPLC). Format: in vivo. Particulars: for atherosclerotic lesions (en face Sudan IV staining of aortas), individual mice / atherosclerotic lesions (en face Sudan IV staining of aortas), mean: 60 mg/kg/day (each agent) gavage once daily 20 weeks; for aorta atherosclerotic lesions compared with vehicle / elevations of serum and liver TC and TG / serum cholesterol levels in VLDL, LDL and HDL (FPLC): 20 weeks; for aorta atherosclerotic lesions compared with vehicle: in words; for elevations of serum and liver TC and TG / serum cholesterol levels in VLDL, LDL and HDL (FPLC): Ldlr−/− mice, WD. From the text: Male C57BL/6 mice (8-week-old) were obtained from Shanghai Laboratory Animal Company (SLAC) (Shanghai, China). Male Ldlr^−/− mice (8-week-old) were obtained from Nanjing Biomedical Research Institute of Nanjing University (Nanjing, China). Mice had ad libitum access to water and standard chow diet (SLAC) unless mentioned otherwise. Special diets included medium-fat-medium-cholesterol diet (chow diet with10% fat, 0.2% cholesterol and 0.5% sodium cholate, custom made in SLAC), and western diet (20% fat, 1.25% cholesterol, 0.5% sodium cholate, D12109C, Research Diets). Mice were maintained in a pathogen-free environment and kept on a 12-h light/dark schedule. Mice were gavaged as described in figure legends with saline containing 0.5% methyl cellulose and 0.5% Tween-80. All mice were used in accordance with the guidelines approved by the Institutional Animal Care and Use Committee of Wuhan University.
Mice were anesthetized and blood collection was performed. Serum was prepared from blood by centrifuging at 1500 × g for 10 min. Livers were harvested and homogenized in a 2:1 mixture of chloroform and methanol using Precellys 24 (Bertin). The organic phase was dried under N2 and liver lipids were reconstituted in ethanol. Total cholesterol and triglyceride levels in the serum and liver were determined using Cholesterol Assay Kit and Triglyceride Assay Kit (Shanghai Kehua Bio-engineering, China).
To examine aorta atherosclerotic lesions, the aortic tree was isolated and fixed with 4% PFA. After removing perivascular adipose tissues, the atherosclerotic lesions were stained with Sudan IV for 10 min and washed with 70% ethanol for 3 min. The aortic tree was pinned to the black wax-filled petri dish containing PBS and imaged under a stereoscopic microscope (Olympus SZX16). The atherosclerotic lesions were quantified with Image J software (NIH)[66].
Serum lipoproteins were separated by FPLC (AKTA, GE Healthcare) using Superdex 75 10/300 GL (GE Healthcare) column. One hundred microliters pooled serum from five mice per group was diluted with 200 μl PBS, and loaded to the column. Fractions were eluted with PBS at a constant rate of 0.2 ml min^–1, and collected with 300 μl per tube. 100 μl fractions were used to quantify the concentration of total cholesterol level with the Amplex Red Cholesterol Assay Kit (Invitrogen). The cholesterol distribution curves of lipoproteins were done with GraphPad Prism 6 software.

A short description of data set [2]: Body weight and food intake of treated mice. The data set is classed as in vivo.
The target in a further data set is T2, HMGCR (TM1-8)-GFP (Cricetulus griseus, UniProt P00347).
T2 sequence (P00347 1-346): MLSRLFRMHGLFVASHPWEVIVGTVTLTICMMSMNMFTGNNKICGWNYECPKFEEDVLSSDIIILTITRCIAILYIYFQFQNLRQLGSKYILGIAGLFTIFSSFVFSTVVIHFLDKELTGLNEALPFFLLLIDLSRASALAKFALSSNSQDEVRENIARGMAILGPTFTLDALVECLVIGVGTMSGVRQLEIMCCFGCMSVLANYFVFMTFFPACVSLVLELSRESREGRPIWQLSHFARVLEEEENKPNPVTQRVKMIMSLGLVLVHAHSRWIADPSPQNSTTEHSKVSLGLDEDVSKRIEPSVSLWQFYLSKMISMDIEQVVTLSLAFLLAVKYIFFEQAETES

[3] abbreviates: C57BL/6J mice, MFMC diet, 6 weeks.

Protocol for HMGCR (TM1-8)-GFP: We thus generated a cell line stably expressing the transmembrane domain of HMGCR fused with green fluorescent protein (GFP) as a reporter (HMGCR (TM1-8)-GFP) (Fig. 2a).
CHO-7 cells were transfected with pCMV-HMGCR (TM1-8)-GFP using FuGENE HD. Twenty-four hours, cells were switched to medium B supplemented with 5% FBS and selected in the presence of 1 mg ml^−1 G418 for 2 weeks. Surviving colonies were isolated and confirmed for GFP expression by immunoblotting and immunofluorescence. The resulting CHO-7/HMGCR (TM1-8)-GFP stable cell line (CHG) was maintained in medium B supplemented with 5% FBS and 200 μg ml^−1 G418.
CHG cells were treated as described in figure legends. Briefly, cells were seeded at day 0 in 96-well black plate (3904, Corning) at a density of 1.5 × 10^4 cells per well, in medium B containing with 5% LPDS. Day 1, corresponding compounds were added as figure legends described in medium B with 5% LPDS, 1 μM lovastatin, 50 μM sodium mevalonate for 16 h. Then cells were fixed with 4% paraformaldehyde for 20 min, washed with PBS for three times, and stained with 2 μg ml^−1 Hoechst 33342.
The fluorescent images (GFP and Hoechst channel) were captured using an Operatta High-Content Imaging System (PerkinElmer) with a ×20 objective. The cytoplasmic GFP fluorescence was measured with the Harmony Software (PerkinElmer). Five random selected filed per well were captured, and about 3000 cells were used to determine the mean cytoplasmic GFP fluorescent intensity per cell after subtracting background GFP intensity. The average GFP intensity of DMSO-treated cells was defined as 100.

As for `C=CCC(O)(CC=C)CCCC(C)C1CCC2C3C(O)C=C4C(C)(C)C(O)CCC4(C)C3CCC12C` (centres unmarked) [Cmpd 81], the “liver HMGCR protein fold change, mean” value at HMGCR (C57BL/6J mice, chow diet, single agent 60 mg/kg/day gavage 10 days, vehicle = 1) turned out to be 0.5524. Moreover, the “decrease of liver HMGCR amount” value at HMGCR (Cmpd 81 alone, 60 mg/kg/day, 10 days) is on record as 50%. Also, the “decrease of liver HMGCR relative to lovastatin-treated samples” value on HMGCR (co-administration of Cmpd 81 with lovastatin, each 60 mg/kg/day, 10 days) was over 13 fold. Also, the “liver HMGCR protein fold change, mean” value at HMGCR (mouse, in vivo) was ~ 2. In addition, in data set [1], the “atherosclerotic lesions (en face Sudan IV staining of aortas), individual mice” value was 32.5011 and 38.2916 and 37.5217 and 25.3733 and 31; the “atherosclerotic lesions (en face Sudan IV staining of aortas), mean” value is 32.9375; the “aorta atherosclerotic lesions compared with vehicle” value is “Significantly less aorta lesions”; the “elevations of serum and liver TC and TG” value is given as “significant effects on alleviating the elevations”. For the same compound, the “serum cholesterol levels in VLDL, LDL and HDL (FPLC)” value in data set [1] is reported as “remarkably reduced”. The “body weight and food intake” value in data set [2] (setting [3]) is reported as “remained comparable”. Also, the “body weight and food intake” value in data set [2] (Ldlr−/− mice, WD, up to 20 weeks) is given as “did not affect”. On HMGCR (TM1-8)-GFP, this compound came in with a DC50 of 410 nM.

In the case of `CC[C@H](C)C(=O)O[C@H]1C[C@@H](C)C=C2C=C[C@H](C)[C@H](CC[C@@H]3C[C@@H](O)CC(=O)O3)[C@H]21` [Lovastatin, lovastatin], at HMGCR (C57BL/6J mice, 60 mg/kg/day gavage once daily 7 days, vehicle = 1, 60 mg/kg/day), the “hepatic HMGCR protein level, mean” value was 58.4 ± 3.5 fold and 58.3968 fold. On HMGCR (C57BL/6J mice, 60 mg/kg/day gavage once daily 7 days, vehicle = 1, listed as lovastatin, 60 mg/kg/day), the “hepatic HMGCR protein level, mean” value is given as 58 fold. Besides, the “hepatic HMGCR protein level, individual mice” value on HMGCR (C57BL/6J mice, 60 mg/kg/day gavage once daily 7 days, vehicle mean = 1, 60 mg/kg/day) was 61.3526 and 59.2668 and 54.571. The “liver HMGCR protein fold change, mean” value at HMGCR (C57BL/6J mice, chow diet, single agent 60 mg/kg/day gavage 10 days, vehicle = 1, listed as Lova) is given as 32.3047. In addition, the “liver HMGCR protein fold change, mean” value on HMGCR (C57BL/6J mice, chow diet, single agent 60 mg/kg/day gavage 10 days, vehicle = 1, listed as lovastatin) is “more than 30”. Further, in data set [1], the “atherosclerotic lesions (en face Sudan IV staining of aortas), individual mice” value was 31.5731 and 31.0783 and 37.0572 and 32.3991 and 25; the “atherosclerotic lesions (en face Sudan IV staining of aortas), mean” value is on record as 31.4215; the “aorta atherosclerotic lesions compared with vehicle” value is “Significantly less aorta lesions”; the “elevations of serum and liver TC and TG” value is “significant effects on alleviating the elevations”. For the same compound, the “serum cholesterol levels in VLDL, LDL and HDL (FPLC)” value in data set [1] is listed as “remarkably reduced”. The “body weight and food intake” value in data set [2] (setting [3]) is on record as “remained comparable”.
